One compound from patent US12377077B2, “Methods and formulations to treat mitochondrial dysfunction” (The Board of Trustees of the Leland Stanford Junior …, priority 2018, dated 2025) can be followed below.

Structures are written as SMILES.

What all share (assay type): cell-based, human
The subject of experiment [1] is pAMPK. The experiment in a line: pAMPK western blot after siRNA knockdown of PRKAA1 in COX10 deficient fibroblasts. Particulars: siAMPK+PT1 compared to siCNT+PT1. Here is the method:
Methods: Western blotting was performed to identify pAMPK levels in cells treated with PT1. Cells were lysed with RIPA buffer supplemented with Na-Orthovanadate, PMSF, and Protease Inhibitor cocktail. Whole cell extracts were fractionated by SDS-PAGE and transferred to a polyvinylidene difluoride membrane using a transfer apparatus according to the manufacturer's protocols (Bio-Rad). After incubation with 5% nonfat milk in TBST (10 mM Tris, pH 8.0, 150 mM NaCl, 0.5% Tween 20) for 60 min, the membrane was washed once with TBST and incubated with antibodies against AMPK (1:1,000), pAMPK (1:1,000), actin (1:10,000) at 4° C. overnight. […]
To test whether the cellular response to PT1 is a result of AMPK activation itself, or is merely a result of nonspecific interactions, an siRNA knockdown strategy was used. siRNA for PRKAA1 (s101) and a negative control (Life Technologies) were incubated with Hiperfect reagent (Qiagen) in media containing DMEM, 1% Penicillin-Streptomycin (10,000 U/mL) (Life Technologies), 1% glutaMAX (Life Technologies) but no serum and allowed to complex for 10 min at room temperature. […] At the end of the incubation period, the cells were analyzed for levels of AMPK and pAMPK by western blot analysis (see protocol above) or incubated for six additional days with PT1 (or DMSO as untreated control) and assessed for viability by Calcein AM. […]

The subject of experiment [2] is pAMPK. Kind of experiment: pAMPK western blot time course in SURF1 deficient fibroblasts. As to the method: Methods: Western blotting was performed to identify pAMPK levels in cells treated with PT1. Cells were lysed with RIPA buffer supplemented with Na-Orthovanadate, PMSF, and Protease Inhibitor cocktail. Whole cell extracts were fractionated by SDS-PAGE and transferred to a polyvinylidene difluoride membrane using a transfer apparatus according to the manufacturer's protocols (Bio-Rad). After incubation with 5% nonfat milk in TBST (10 mM Tris, pH 8.0, 150 mM NaCl, 0.5% Tween 20) for 60 min, the membrane was washed once with TBST and incubated with antibodies against AMPK (1:1,000), pAMPK (1:1,000), actin (1:10,000) at 4° C. overnight. Membranes were washed three times for 5 min and incubated with a 1:10,000 dilution of horseradish peroxidase-conjugated anti-mouse or anti-rabbit antibodies for 2 h. Blots were washed with TBST three times and developed with the ECL system (Thermo Scientific) according to the manufacturer's protocols.
On the technique in general: Immunoblotting shows a protein as a band on a membrane.

Another experiment relates to PGC-1α. Kind of experiment: Gene expression after PT1 treatment. Particulars: 48 hr treatment with PT1; FIG. 5B.
Experiment [3] has as its system NGLY1 deficient fibroblasts. The experiment in a line: Lipofuscin levels. Particulars: FIG. 8B.

For `Cc1cc(-c2ccc(C=C3SC(=S)N(c4ccc(Cl)c(C(=O)O)c4)C3=O)o2)c([N+](=O)[O-])cc1C` [PT1], in the experiment on pAMPK [1], the “decrease in pAMPK levels” value amounted to 63%. In the experiment with pAMPK [2], the “time of peak pAMPK levels post PT1 treatment” value was 24 hours and the “time of return of pAMPK levels to baseline” value came out at 48 hours. The “time by which pAMPK levels increase post PT1 treatment” value in the experiment with pAMPK [2] (pAMPK normalized to actin) was at most 2 hours. For the same compound, in the experiment with PGC-1α, the “increase in expression of PGC-1α” value turned out to be 2.4 fold. Moreover, the “reduction of lipofuscin levels” value in experiment [3] is reported as “approximately 36%”.
